“Also recorded” adds a separate entry of the source.
Key:
[1] = test system: P2-seeded tau biosensor cells; assay: EV purification and characterization (immunoblot of exosome markers, nanoparticle tracking analysis); type: cell-based
Excerpt: Extracellular vesicles (EVs) were purified from the cell culture medium using Exo-Quick-TC exosome purification kit (SBI, EXOTC10A-1) according to the manufacturing instructions. Immunoblot analysis of the EV fractions was done by 10-20% Tris-Glycine gel in non-reduced conditions, transferred to PVDF membrane and probed with antibodies against CD63 (ThermoFisher, 10628D), followed by HRP-conjugated secondary antibodies. Chemiluminescent signals were obtained with Super Signal West Femto substrate (Thermo Scientific Pierce 34,095) and detected using a BioSpectrum 600 imaging system and quantified using VisionWorks Version 6.6A software (UVP; Upland, Calif.). […] Inhibition of nSMase2 activity in cell extracts of confluent tau biosensors was confirmed by nSMase2 activity assay analogous to the one described in Example 2.
Our analysis confirmed that nSMase2 inhibitors suppress release of EVs from P2-seeded tau biosensor cells. […] EV samples purified from the same number of donor cells were analyzed per each group. Purified EVs were imaged by transmission electron microscopy (FIG. 5C). Size distribution of particles in the samples were assessed by nanoparticle tracking analysis (FIG. 5D). WB analysis for exosome markers also confirmed decrease in the exosome-specific marker expression (FIG. 5E).
Donor cells were grown in medium with exosome-depleted FBS (ThermoFisher, A2720803) for 48 hours with or without compounds, cell culture medium was collected and EVs purified using ExoQuick-TC kit (SBI biosciences). For quality control, small amounts of purified EVs were fixed on a copper mesh in glutaraldehyde/paraformaldehyde solution, stained with 2% uranyl acetate solution and imaged on a JEOL 100CX electron microscope at 29,000 times magnification. […] Chemiluminescent signals were obtained with Super Signal West Femto substrate (Thermo Scientific Pierce 34095) and detected using a BioSpectrum 600 imaging system and quantified using VisionWorks Version 6.6A software (UVP; Upland, Calif.).

[2] = molecular target: T1, nSMase2 (Mus musculus, UniProt Q9JJY3); assay: Target engagement: nSMase activity in brain homogenates of treated mice; type: in vivo, C57BL6 mice; settings: 100 mg/kg oral gavage, 4 hours
T1 construct: from tissue; host or cells: mouse brain (cortical homogenate)
T1 sequence (Q9JJY3 1-655): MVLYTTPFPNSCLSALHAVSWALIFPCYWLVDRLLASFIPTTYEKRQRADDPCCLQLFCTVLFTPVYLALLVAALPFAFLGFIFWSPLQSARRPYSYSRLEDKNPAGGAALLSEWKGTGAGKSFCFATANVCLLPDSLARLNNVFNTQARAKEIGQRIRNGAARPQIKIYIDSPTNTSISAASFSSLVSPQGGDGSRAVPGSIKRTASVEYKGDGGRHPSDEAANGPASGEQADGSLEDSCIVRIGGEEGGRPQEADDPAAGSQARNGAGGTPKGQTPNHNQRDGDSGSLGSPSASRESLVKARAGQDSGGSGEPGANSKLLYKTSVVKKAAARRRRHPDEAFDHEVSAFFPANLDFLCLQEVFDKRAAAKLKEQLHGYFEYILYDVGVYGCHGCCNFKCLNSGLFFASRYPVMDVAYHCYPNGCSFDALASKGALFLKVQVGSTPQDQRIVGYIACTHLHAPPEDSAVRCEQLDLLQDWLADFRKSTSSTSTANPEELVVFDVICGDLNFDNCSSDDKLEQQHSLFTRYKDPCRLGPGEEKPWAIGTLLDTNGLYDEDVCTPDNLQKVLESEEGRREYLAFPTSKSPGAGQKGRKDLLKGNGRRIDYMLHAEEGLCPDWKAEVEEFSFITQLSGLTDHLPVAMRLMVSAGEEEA
Description: Alternatively, mice were treated with the compounds by a parental route and after euthanization the brain is removed and homogenized using 100 mM Tris-HCl pH 7.5, 100 mM sucrose, 100 μM PMSF, 1× protease inhibitor cocktail, and diluted to 2× in reaction buffer prior to the assay and nSMase2 activity is measured. The reaction was started by adding 10 μL of the working solution (100 μM Amplex Red reagent containing 2 U/mL HRP, 0.2 U/mL choline oxidase, 8 U/mL of alkaline phosphatase, and 0.5 mM sphingomyelin) and the progression of the reaction was monitored at 540/590 nm (Ex/Em) for 2 h at 37° C. The activity of nSMase2 at 2 hrs was plotted as percentage of control using PrismGraphPad.
Brain permeability and target engagement studies were conducted in C57BL/6J mice. […] Drug level evaluation in brain and plasma samples was performed by LC-MS/MS analysis. Brain tissue was homogenized and nSMase2 activity measured as described above.

O=c1[nH]c(=S)[nH]c(-c2ccccc2)c1Cc1c(O)ccc2ccccc12 [cambinol]
levels of exosomal marker CD63 in cell medium EV fraction ([1]; 10 μM, 60 hours, Western blot (FIG. 3C)): Decrease | release of EVs from P2-seeded donor cells ([1]; 50 μM, 48 hours, nanoparticle tracking analysis): released less EVs; also recorded: more effective than the nSMase2 inhibitor GW4869 | inhibition (decrease) of nSMase activity in brain/cortical homogenates vs vehicle [2]: 26.8%
